This note sets out measurements from BindingDB's records for doi:10.1016/j.chembiol.2011.05.010 (Harvard Medical School, 2011).

SMILES strings stand for the structures.

Common to all, as to assay: Biochemical Assay
The target of test [1] is T1, Aurora kinase A (Homo sapiens, UniProt O14965).
T1 sequence (O14965 whole entry): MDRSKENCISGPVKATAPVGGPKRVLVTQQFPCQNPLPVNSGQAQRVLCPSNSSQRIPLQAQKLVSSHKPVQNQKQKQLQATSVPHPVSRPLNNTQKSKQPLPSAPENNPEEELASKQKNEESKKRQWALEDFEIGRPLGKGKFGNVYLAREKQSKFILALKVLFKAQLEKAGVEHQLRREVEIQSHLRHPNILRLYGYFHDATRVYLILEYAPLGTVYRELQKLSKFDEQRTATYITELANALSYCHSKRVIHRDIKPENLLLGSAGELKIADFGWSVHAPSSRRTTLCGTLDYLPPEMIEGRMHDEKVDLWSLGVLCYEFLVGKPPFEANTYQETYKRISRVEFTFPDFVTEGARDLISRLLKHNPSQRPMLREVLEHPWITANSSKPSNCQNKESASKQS
As for the experimental part:
(§1) In vitro biochemical assays were performed in parallel to determine the most potent tool compound.

In test [2] the target is Aurora kinase B (Homo sapiens, UniProt Q96GD4). As for the experimental part: as §1
Test [3] deals with T2, Aurora kinase C (Homo sapiens, UniProt Q9UQB9).
T2 sequence (Q9UQB9 whole entry): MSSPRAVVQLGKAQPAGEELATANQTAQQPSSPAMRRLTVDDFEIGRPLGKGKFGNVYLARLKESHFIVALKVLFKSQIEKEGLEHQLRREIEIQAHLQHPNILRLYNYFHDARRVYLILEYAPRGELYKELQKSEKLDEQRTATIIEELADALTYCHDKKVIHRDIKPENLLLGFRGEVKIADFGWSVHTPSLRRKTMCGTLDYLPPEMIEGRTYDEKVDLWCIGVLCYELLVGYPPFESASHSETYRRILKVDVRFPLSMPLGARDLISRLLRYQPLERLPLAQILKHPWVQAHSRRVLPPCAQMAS
The method, then: as §1

Test [4] has as its target Homeodomain-interacting protein kinase 2 (Homo sapiens, UniProt Q9H2X6). The method, then: as §1

Sequence of Homeodomain-interacting protein kinase 2 (Q9H2X6 whole entry): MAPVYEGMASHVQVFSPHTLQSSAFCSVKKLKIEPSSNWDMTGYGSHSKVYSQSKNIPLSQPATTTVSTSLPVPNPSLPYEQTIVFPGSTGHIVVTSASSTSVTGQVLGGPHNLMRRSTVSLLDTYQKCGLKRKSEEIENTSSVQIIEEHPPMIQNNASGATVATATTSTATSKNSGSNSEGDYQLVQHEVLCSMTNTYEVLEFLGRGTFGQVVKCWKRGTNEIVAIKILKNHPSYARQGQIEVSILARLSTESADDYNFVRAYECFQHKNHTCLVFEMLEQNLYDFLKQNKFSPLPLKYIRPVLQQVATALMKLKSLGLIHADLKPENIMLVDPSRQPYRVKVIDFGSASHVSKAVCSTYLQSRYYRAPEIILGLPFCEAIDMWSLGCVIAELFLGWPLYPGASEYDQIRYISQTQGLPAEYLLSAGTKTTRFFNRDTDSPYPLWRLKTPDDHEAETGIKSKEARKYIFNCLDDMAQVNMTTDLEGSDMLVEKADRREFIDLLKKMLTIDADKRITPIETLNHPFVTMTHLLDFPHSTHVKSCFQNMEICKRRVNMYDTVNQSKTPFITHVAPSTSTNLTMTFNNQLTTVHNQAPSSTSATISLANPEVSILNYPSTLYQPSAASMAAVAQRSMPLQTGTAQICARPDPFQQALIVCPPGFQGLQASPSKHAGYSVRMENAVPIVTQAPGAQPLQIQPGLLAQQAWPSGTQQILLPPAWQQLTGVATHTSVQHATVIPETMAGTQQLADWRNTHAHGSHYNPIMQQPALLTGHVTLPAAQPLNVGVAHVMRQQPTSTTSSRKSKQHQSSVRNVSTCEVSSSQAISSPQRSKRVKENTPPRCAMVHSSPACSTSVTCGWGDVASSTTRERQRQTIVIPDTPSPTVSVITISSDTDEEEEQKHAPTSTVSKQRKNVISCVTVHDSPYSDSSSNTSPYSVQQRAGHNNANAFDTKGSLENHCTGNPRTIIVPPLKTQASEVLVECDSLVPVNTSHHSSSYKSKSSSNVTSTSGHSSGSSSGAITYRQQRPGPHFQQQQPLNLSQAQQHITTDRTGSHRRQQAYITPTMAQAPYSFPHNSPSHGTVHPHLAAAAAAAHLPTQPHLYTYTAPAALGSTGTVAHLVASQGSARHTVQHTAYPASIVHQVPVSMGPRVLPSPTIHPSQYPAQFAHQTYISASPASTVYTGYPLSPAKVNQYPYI
Sequence of Aurora kinase B (Q96GD4 whole entry): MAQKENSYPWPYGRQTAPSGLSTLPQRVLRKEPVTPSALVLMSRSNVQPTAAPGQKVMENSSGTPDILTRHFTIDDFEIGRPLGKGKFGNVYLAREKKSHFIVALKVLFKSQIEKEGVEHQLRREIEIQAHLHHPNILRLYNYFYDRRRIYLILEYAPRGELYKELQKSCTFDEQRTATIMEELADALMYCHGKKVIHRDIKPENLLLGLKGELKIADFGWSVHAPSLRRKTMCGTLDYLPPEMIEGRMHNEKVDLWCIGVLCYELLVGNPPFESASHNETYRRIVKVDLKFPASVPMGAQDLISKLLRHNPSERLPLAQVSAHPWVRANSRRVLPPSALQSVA

Take `CN1C(=O)c2ccccc2N(C)c2nc(Nc3ccc(N4CCC(O)CC4)cc3)ncc21` [Benzo[e]pyrimido[5,4-b][1,4]diazepin-6(11H)-one, 1]: the IC50 (in general, the concentration that inhibits the measured activity by half) is 0.008 µM in test [1], 0.024 µM in test [2] and 0.041 µM in test [3].
`N=C1NC(=O)/C(=C\c2c[nH]c(=O)c(-c3ccc(N4CCNCC4)nc3)c2)S1` [Furan thiazolidinediones, A64]: in test [4], the midpoint of inhibition, the IC50, lay at 0.074 µM and the Kd (commonly a measure of binding affinity in units of concentration) came to 0.0095 µM.
